These results are taken from patent US8889708B2 (Boehringer Ingelheim International GmbH, priority 2013, dated 2014).

One assay concerns the target recombinant human DPPI (Homo sapiens (Human), UniProt P53634). Briefly: Inhibition of Human DPPI (Cathepsin C). The assay is classed as biochemical. Conditions: substrate Gly-Arg-AMC, 30 min room temperature. The source says:
Inhibition of Human DPPI (Cathepsin C)
Materials: Microtiterplates (Optiplate-384 F) were purchased from PerkinElmer (Prod. No. 6007270). The substrate Gly-Arg-AMC was from Biotrend (Prod.-No. 808756 Custom peptide). Bovine serum albumin (BSA; Prod. No. A3059) and Dithiothreitol (DTT; Prod. No D0632) were from Sigma. TagZyme buffer was from Riedel-de-Haen (Prod.-No. 04269), NaCl was from Merck (Prod.-No. 1.06404.1000) and morpholinoethane sulfonic acid (MES), was from Serva (Prod.-No. 29834). The DPP1 inhibitor Gly-Phe-DMK was purchased from MP Biomedicals (Prod.-No. 03DK00625). The recombinant human DPPI was purchased from Prozymex. All other materials were of highest grade commercially available.
The following buffers were used: MES buffer: 25 mM MES, 50 mM NaCl, 5 mM DTT, adjusted to pH 6.0, containing 0.1% BSA; TAGZyme Buffer: 20 mM NaH2PO4, 150 mM NaCl adjusted to pH 6.0 with HCl
The recombinant human DPPI was diluted in TAGZyme buffer to 1 U/ml (38.1 μg/ml, respectively), and then activated by mixing in a 1:2 ratio with a Cysteamine aqueous solution (2 mM) and incubating for 5 min at room temperature.
Five uL test compound (final concentration 0.1 nM to 100 μM) in aqua bidest (containing 4% DMSO, final DMSO concentration 1%) were mixed with 10 μL of DPPI in MES buffer (final concentration 0.0125 ng/μL) and incubated for 10 min. Then, 5 μL of substrate in MES buffer (final concentration 50 μM) were added. The microtiter plates were then incubated at room temperature for 30 min. Then, the reaction was stopped by adding 10 μL of Gly-Phe-DMK in MES-buffer (final concentration 1 μM). The fluorescence in the wells was determined using a Molecular Devices SpectraMax M5 Fluorescence Reader (Ex 360 nm, Em 460 nm) or an Envision Fluorescence Reader (Ex 355 nm, Em 460 nm).
Each assay microtiter plate contained wells with vehicle controls (1% DMSO in bidest+0.075% BSA) as reference for non-inhibited enzyme activity (100% Ctl; high values) and wells with inhibitor (Gly-Phe-DMK, in bidest+1% DMSO+0.075% BSA, final concentration 1 μM) as controls for background fluorescence (0% Ctl; low values).
The analysis of the data was performed by calculating the percentage of fluorescence in the presence of test compound in comparison to the fluorescence of the vehicle control after subtracting the background fluorescence using the following formula: (RFU(sample)−RFU(background))*100/(RFU(control)−RFU(background))
Data from these calculations were used to generate IC50 values for inhibition of DPPI, respectively.

In assay [1] the target is recombinant human Cathepsin K (Homo sapiens (Human), UniProt P43235). Briefly: Inhibition of Human Cathepsin K. The assay is classed as biochemical. Conditions: substrate Z-Gly-Pro-Arg-AMC, 60 min room temperature. The source says: Inhibition of Human Cathepsin K Materials: Microtiterplates (Optiplate-384 F were purchased from PerkinElmer (Prod. No. 6007270). The substrate Z-Gly-Pro-Arg-AMC was from Biomol (Prod.-No. P-142). L-Cysteine (Prod. No. 168149) was from Sigma. Sodium actetate was from Merck (Prod.-No. 6268.0250), EDTA was from Fluka (Prod.-No. 03680). The inhibitor E-64 was purchased from Sigma (Prod.-No. E3132). The recombinant human Cathepsin K proenzyme was purchased from Biomol (Prod. No. SE-367). All other materials were of highest grade commercially available.
recombinant human Cathepsin K, sequence (P43235 115-329): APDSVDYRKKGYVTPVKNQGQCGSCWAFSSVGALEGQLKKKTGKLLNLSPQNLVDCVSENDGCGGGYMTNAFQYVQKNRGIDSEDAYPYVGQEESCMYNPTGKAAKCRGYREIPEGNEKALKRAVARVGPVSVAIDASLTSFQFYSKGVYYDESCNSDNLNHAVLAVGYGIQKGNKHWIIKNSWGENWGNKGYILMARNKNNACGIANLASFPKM
The following buffers were used: Activation buffer: 32.5 mM sodium acetate, adjusted to pH 3.5 with HCl; Assay buffer: 150 mM sodium acetate, 4 mM EDTA, 20 mM L-Cysteine, adjusted to pH 5.5 with HCl,
To activate the proenzyme, 5 μl procathepsin K were mixed with 1 ul activation buffer, and incubated at room temperature for 30 min.
5 μL test compound (final concentration 0.1 nM to 100 μM) in aqua bidest (containing 4% DMSO, final DMSO concentration 1%) were mixed with 10 uL of Cathepsin K in assay buffer (final concentration 2 ng/μL) and incubated for 10 min. Then 5 μL of substrate in assay buffer (final concentration 12.5 μM) were added. The plates were then incubated at room temperature for 60 min. Then, the reaction was stopped by adding 10 μL of E64 in assay buffer (final concentration 1 μM). The fluorescence in the wells was determined using a Molecular Devices SpectraMax M5 Fluorescence Reader (Ex 360 nm, Em 460 nm).
Each assay microtiter plate contains wells with vehicle controls (1% DMSO in bidest) as reference for non-inhibited enzyme activity (100% Ctl; high values) and wells with inhibitor (E64 in bidest+1% DMSO, final concentration 1 μM) as controls for background fluorescence (0% Ctl; low values). The analysis of the data was performed by calculating the percentage of fluorescence in the presence of test compound in comparison to the fluorescence of the vehicle control after subtracting the background fluorescence: (RFU(sample)−RFU(background))*100/(RFU(control)−RFU(background))
Data from these calculations were used to generate IC50 values for inhibition of Cathepsin K, respectively.

Molecules are shown by their SMILES. pIC50: −log10 of the molar value.

recombinant human DPPI, sequence (P53634 231-394): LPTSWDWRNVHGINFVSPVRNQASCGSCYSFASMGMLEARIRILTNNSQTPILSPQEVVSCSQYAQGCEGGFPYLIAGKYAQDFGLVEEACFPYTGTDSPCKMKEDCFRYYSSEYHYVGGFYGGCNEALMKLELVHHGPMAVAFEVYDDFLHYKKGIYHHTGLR
recombinant human DPPI, sequence (P53634 395-463): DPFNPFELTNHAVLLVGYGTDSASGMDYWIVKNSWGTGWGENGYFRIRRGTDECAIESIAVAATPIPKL
recombinant human DPPI, sequence (P53634 25-134): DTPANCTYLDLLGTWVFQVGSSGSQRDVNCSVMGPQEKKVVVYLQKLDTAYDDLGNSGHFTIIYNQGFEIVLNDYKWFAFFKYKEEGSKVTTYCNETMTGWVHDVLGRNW

For orientation: pIC50 means the IC50 on a negative log10 scale, so that one unit is a factor of ten. On to `N#C[C@H](Cc1ccc(-c2ccc3c(c2)CCNC3=O)cc1F)NC(=O)C12CCC(CC1)CN2` [Example 22], for which the pIC50 at recombinant human DPPI is 8.17; in assay [1], 5.64.
Turning to `CC1(C)OC(=O)c2ccc(-c3ccc(C[C@@H](C#N)NC(=O)C45CCC(CC4)CN5)c(F)c3)cc21` [Example 27], the negative logarithm of the IC50 (pIC50) on recombinant human DPPI was 8.66; in assay [1] it was 5.77.
On the same counts, the results for `CN1C(=O)Cc2ccc(-c3ccc(C[C@@H](C#N)NC(=O)C45CCC(CC4)CN5)c(F)c3)cc21` [Example 28] are 8.31 and 5.66.
On the same counts, the results for `COCCN1C(=O)Cc2ccc(-c3ccc(C[C@@H](C#N)NC(=O)C45CCC(CC4)CN5)c(F)c3)cc21` [Example 26] are 8.37 and 5.96.
In the same order, the values of `CS(=O)(=O)c1ccc(-c2ccc(C[C@@H](C#N)NC(=O)C34CCC(CC3)CN4)c(F)c2)cc1` [Example 21, N-[(1S)-1-cyano-2-[2-fluoro-4-(4-methanesulfonylphenyl)phenyl]ethyl]-2-azabicyclo[2.2.2]octane-1-carboxamide] are 7.77 and 6.10.
For the molecule `N#C[C@H](Cc1ccc(-c2csc(C(N)=O)c2)cc1F)NC(=O)C12CCC(CC1)CN2` [Example 31], the pIC50 is 8.37 at recombinant human DPPI and 6.10 in assay [1].
In the same order, the values of `N#C[C@H](Cc1ccc(-c2ccc3c(c2)NC(=O)C3)cc1F)NC(=O)C12CCC(CC1)CN2` [Example 23] are 8.18 and 6.22.
On to `CN1Cc2cc(-c3ccc(C[C@@H](C#N)NC(=O)C45CCC(CC4)CN5)cc3)ccc2C1=O` [Example 4], for which the values for the pIC50 (at recombinant human DPPI; in assay [1]) were 7.30 and 5.20, respectively.
On the same counts, the results for `CN1C(=O)Cc2ccc(-c3ccc(C[C@@H](C#N)NC(=O)C45CCC(CC4)CN5)cc3)cc21` [Example 2] are 7.77 and 5.17.
